From patent publication US6150385A, “1,3,4-thiadiazoles useful for the treatment of CMV infections” (Pharmacia & Upjohn Company, priority 1999, dated 2000)

Biological target: T1, HCMV polymerase (Human cytomegalovirus, UniProt P08546)
T1 construct: made in house; host or cells: SF-9 insect cells infected with recombinant baculovirus
Experiment: HCMV polymerase assay (scintillation proximity assay)
Assay type: biochemical
Conditions: percentage of inhibition at 25 μM concentration in CMV polymerase assay
Outline: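 Baculovirus/SF-9-expressed HCMV polymerase in 5.4 mM HEPES pH 7.5, 11.7 mM KCl, 4.5 mM MgCl2, 0.36 mg/ml BSA, 90 nM 3H-dTTP, with or without 2 mM CHAPS. Started with 6 nM biotinylated poly(dA)-oligo(dT), 30 min at 25 or 37 °C, EDTA-stopped, read by streptavidin-SPA counting; % inhibition at 25 μM.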

T1 sequence (P08546 whole entry): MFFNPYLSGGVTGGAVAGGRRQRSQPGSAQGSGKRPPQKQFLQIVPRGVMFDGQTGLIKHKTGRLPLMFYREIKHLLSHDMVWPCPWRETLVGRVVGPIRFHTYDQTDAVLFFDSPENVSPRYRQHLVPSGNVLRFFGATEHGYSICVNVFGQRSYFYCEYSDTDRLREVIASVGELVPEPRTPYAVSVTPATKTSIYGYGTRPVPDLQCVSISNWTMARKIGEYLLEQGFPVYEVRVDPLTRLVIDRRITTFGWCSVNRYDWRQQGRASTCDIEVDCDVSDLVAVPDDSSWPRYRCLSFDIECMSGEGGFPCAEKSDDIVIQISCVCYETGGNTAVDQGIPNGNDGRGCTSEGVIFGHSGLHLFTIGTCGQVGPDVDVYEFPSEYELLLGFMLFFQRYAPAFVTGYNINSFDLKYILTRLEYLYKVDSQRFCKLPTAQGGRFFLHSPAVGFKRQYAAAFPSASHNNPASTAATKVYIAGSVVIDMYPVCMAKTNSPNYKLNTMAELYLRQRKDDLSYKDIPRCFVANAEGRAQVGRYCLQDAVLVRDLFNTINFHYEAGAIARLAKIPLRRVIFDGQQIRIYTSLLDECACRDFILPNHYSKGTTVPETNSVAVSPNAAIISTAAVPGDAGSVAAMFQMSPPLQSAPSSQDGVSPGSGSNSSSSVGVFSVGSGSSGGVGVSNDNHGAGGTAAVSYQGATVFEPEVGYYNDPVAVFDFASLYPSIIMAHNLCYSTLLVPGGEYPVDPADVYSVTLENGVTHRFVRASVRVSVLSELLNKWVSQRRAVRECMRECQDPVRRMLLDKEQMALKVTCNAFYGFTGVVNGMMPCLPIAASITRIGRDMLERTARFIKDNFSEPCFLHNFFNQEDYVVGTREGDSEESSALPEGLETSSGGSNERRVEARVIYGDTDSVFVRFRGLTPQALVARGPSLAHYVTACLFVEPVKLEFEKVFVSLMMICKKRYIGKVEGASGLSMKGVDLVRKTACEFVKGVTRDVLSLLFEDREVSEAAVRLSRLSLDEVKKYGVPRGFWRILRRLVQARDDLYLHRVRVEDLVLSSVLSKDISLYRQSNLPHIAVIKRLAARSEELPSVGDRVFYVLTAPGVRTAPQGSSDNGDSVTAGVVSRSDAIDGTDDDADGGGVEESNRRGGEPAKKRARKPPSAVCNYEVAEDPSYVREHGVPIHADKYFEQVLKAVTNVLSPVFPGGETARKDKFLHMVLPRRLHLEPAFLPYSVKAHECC

inhibition at 25 µM [%] | SMILES | % Inhib [%]
22.8 | COc1ccc(CNc2nnc(NC(=O)c3cccc([N+](=O)[O-])c3)s2)cc1OC [compound 436, N-{5-[(3,4-dimethoxybenzyl)amino]-1,3,4-thiadiazol-2-yl}-3-nitrobenzamide] | 
99.6 | O=C(Nc1nnc(NCCCCc2ccccc2)s1)c1ccc2c(c1)C(=O)OC2=O [compound 11, 1,3-dioxo-N-{5-[(4-phenylbutyl)amino]-1,3,4-thiadiazol-2-yl}-1,3-dihydro-2-benzofuran-5-carboxamide] | 
20.3 | CCOc1ccc2ccccc2c1C(=O)Nc1nnc(NCCNC(C)=O)s1 [compound 463, N-(5-{[2-(acetylamino)ethyl]amino}-1,3,4-thiadiazol-2-yl)-2-ethoxy-1-naphthamide] | 
34.9 | O=C(Nc1nnc(NC2CCCCCC2)s1)c1cc(F)cc(F)c1 [compound 300, N-[5-(cycloheptylamino)-1,3,4-thiadiazol-2-yl]-3,5-difluorobenzamide] | 
28.1 | O=C(/C=C/c1ccccc1Cl)Nc1nnc(NC2CCCc3ccccc32)s1 (stereo not drawn) [compound 374, (E)-3-(2-chlorophenyl)-N-[5-(1,2,3,4-tetrahydro-1-naphthalenylamino)-1,3,4-thiadiazol-2-yl]-2-propenamide] | 
36 | O=C(Nc1nnc(NCc2ccncc2)s1)c1ccc(I)cc1 [compound 289, 4-iodo-N-{5-[(4-pyridinylmethyl)amino]-1,3,4-thiadiazol-2-yl}benzamide] | 
27.3 | O=C(CCCCCl)Nc1nnc(NCCCCc2ccccc2)s1 [compound 382, 5-chloro-N-{5-[(4-phenylbutyl)amino]-1,3,4-thiadiazol-2-yl}pentanamide] | 
32.7 | O=C(/C=C/c1ccccc1)Nc1nnc(NCc2ccc(F)cc2)s1 [compound 326, (E)-N-{5-[(4-fluorobenzyl)amino]-1,3,4-thiadiazol-2-yl}-3-phenyl-2-propenamide] | 
42.2 | CC(C)c1cc(C(C)C)c(C(=O)Nc2nnc(NCCN3CCCCC3)s2)c(C(C)C)c1 [compound 232, 2,4,6-triisopropyl-N-{5-[(2-piperidinoethyl)amino]-1,3,4-thiadiazol-2-yl}benzamide] | 
31.9 | O=C(/C=C/c1ccccc1)Nc1nnc(NCc2ccc(Cl)c(Cl)c2)s1 [compound 333, (E)-N-{5-[(3,4-dichlorobenzyl)amino]-1,3,4-thiadiazol-2-yl}-3-phenyl-2-propenamide] | 
22.8 | O=C(Nc1nnc(NCCNc2ccccc2)s1)c1ccc(Br)cc1 [compound 434, N-{5-[(2-anilioethyl)amino]-1,3,4-thiadiazol-2-yl}-4-bromobenzamide] | 
20.1 | CCSCCNc1nnc(NC(=O)c2cc3ccccc3s2)s1 [compound 466, N-(5-{[2-(ethylsulfanyl)ethyl]amino}-1,3,4-thiadiazol-2-yl)-1-benzothiophene-2-carboxamide] | 
33.2 | O=C(/C=C/c1ccccc1Cl)Nc1nnc(NCCSc2ccccc2)s1 [compound 322, (E)-3-(2-chlorophenyl)-N-(5-{[2-(phenylsulfanyl)ethyl]amino}-1,3,4-thiadiazol-2-yl)-2-propenamide] | 
33 | Cc1ccc(C(=O)Nc2nnc(NC3CCCCCC3)s2)cc1 [compound 323, N-[5-(cycloheptylamino)-1,3,4-thiadiazol-2-yl]-4-methylbenzamide] | 

Further lines, the molecule ahead of its results:

SMILES | inhibition at 25 µM [%] | % Inhib [%]
O=C(/C=C/c1ccccc1)Nc1nnc(NCc2cccc3ccccc23)s1 [compound 329, (E)-N-{5-[(1-naphthylmethyl)amino]-1,3,4-thiadiazol-2-yl}-3-phenyl-2-propenamide] | 32.4 | 
O=C(Nc1nnc(NCCc2c[nH]c3ccccc23)s1)c1ccc(C(F)(F)F)cc1 [compound 284, N-(5-{[2-(1H-indol-3-yl)ethyl]amino}-1,3,4-thiadiazol-2-yl)-4-(trifluoromethyl)benzamide] | 36.7 | 
O=C(Nc1nnc(NCCCNC2CCCCC2)s1)c1ccc(F)cc1F [compound 160, N-(5-{[3-(cyclohexylamino)propyl]amino}-1,3,4-thiadiazol-2-yl)-2,4-difluorobenzamide] | 52.6 | 
CCOc1ccc2ccccc2c1C(=O)Nc1nnc(NCC2CCCCC2)s1 [compound 431, N-{5-[(cyclohexylmethyl)amino]-1,3,4-thiadiazol-2-yl}-2-ethoxy-1-naphthamide] | 23.1 | 
O=C(Nc1nnc(NCCCN2CCCC2=O)s1)c1cccc([N+](=O)[O-])c1 [compound 135, 3-nitro-N-(5-{[3-(2-oxo-1-pyrrolidinyl)propyl]amino}-1,3,4-thiadiazol-2-yl)benzamide] | 56.6 | 
O=C(Nc1nnc(NCc2ccc3c(c2)OCO3)s1)c1ccc(Br)cc1 [compound 273, N-{5-[(1,3-benzodioxol-5-ylmethyl)amino]-1,3,4-thiadiazol-2-yl}-4-bromobenzamide] | 38.1 | 
CCOc1ccc2ccccc2c1C(=O)Nc1nnc(NCCSc2ccccc2)s1 [compound 206, 2-ethoxy-N-(5-{[2-(phenylsulfanyl)ethyl]amino}-1,3,4-thiadiazol-2-yl)-1-naphthamide] | 44.9 | 
O=C(Nc1nnc(NC2CCCCCC2)s1)c1ccc2c(c1)C(=O)OC2=O [compound 29, N-[5-(cycloheptylamino)-1,3,4-thiadiazol-2-yl]-1,3-dioxo-1,3-dihydro-2-benzofuran-5-carboxamide] | 92.4 | 
NS(=O)(=O)c1ccc(CCNc2nnc(NC(=O)/C=C/c3ccccc3Cl)s2)cc1 [compound 125, (E)-N-(5-{[4-(aminosulfonyl)phenethyl]amino}-1,3,4-thiadizol-2-yl)-3-(2-chlorophenyl)-2-propenamide] | 58.9 | 
CC(C)c1cc(C(C)C)c(C(=O)Nc2nnc(NCc3ccncc3)s2)c(C(C)C)c1 [compound 266, 2,4,6-triisopropyl-N-{5-[(4-pyridinylmethyl)amino]-1,3,4-thiadiazol-2-yl}benzamide] | 38.8 | 
CCCCCCCC/C=C/CCCCCCCC(=O)Nc1nnc(NC2CCCCCC2)s1 [compound 31, (E)-N-[5-(cycloheptylamino)-1,3,4-thiadiazol-2-yl]-9-octadecenamide] | 91.8 | 
O=C(/C=C/c1ccccc1)Nc1nnc(NCCc2cccs2)s1 [compound 77, (E)-3-phenyl-N-(5-{[2-(2-thienyl)ethyl]amino}-1,3,4-thiadiazol-2-yl)-2-propenamide] | 68.3 | 
O=C(Nc1nnc(NCc2ccc(Cl)c(Cl)c2)s1)c1ccc(F)cc1F [compound 416, N-{5-[(3,4-dichlorobenzyl)amino]-1,3,4-thiadiazol-2-yl}-2,4-difluorobenzamide] | 24.5 | 
CCOC(=O)N1CCC(Nc2nnc(NC(=O)c3cc4ccccc4s3)s2)CC1 [compound 368, ethyl 4-({5-[(1-benzothiophen-2-ylcarbonyl)amino]-1,3,4-thiadiazol-2-yl}amino)tetrahydro-1(2H)-pyridinecarboxylate] | 28.5 | 
COc1ccccc1C(=O)Nc1nnc(NC[C@@H]2CCC3CC2C3(C)C)s1 (stereo partly drawn) [compound 22, N-[5-({[(2R)-6,6-dimethylbicyclo[3.1.1]hept-2-yl]methyl}amino)-1,3,4-thiadiazol-2-yl]-2-methoxybenzamide] | 97.2 | 
O=C(Nc1nnc(NCc2cccc3ccccc23)s1)c1cc(F)cc(F)c1 [compound 362, 3,5-difluoro-N-{5-[(1-naphthylmethyl)amino]-1,3,4-thiadiazol-2-yl}benzamide] | 28.8 | 
O=C(Nc1nnc(NCCCN2CCCC2=O)s1)c1ccc(I)cc1 [compound 203, 4-iodo-N-(5-{[3-(2-oxo-1-pyrrolidinyl)propyl]amino}-1,3,4-thiadiazol-2-yl)benzamide] | 45 | 
CCCCCCCC/C=C/CCCCCCCC(=O)Nc1nnc(NCCc2ccc(S(N)(=O)=O)cc2)s1 [compound 336, (E)-N-(5-{[4-(aminosulfonyl)phenethyl]amino}-1,3,4-thiadiazol-2-yl)-9-octadecenamide] | 31.6 | 
O=C(Nc1nnc(NCCc2ccccc2)s1)c1c(Cl)cccc1Cl [compound 377, 2,6-dichloro-N-[5-(phenethylamino)-1,3,4-thiadiazol-2-yl]benzamide] | 27.8 | 
CCOc1ccc2ccccc2c1C(=O)Nc1nnc(NCC2CC2)s1 [compound 177, N-{5-[(cyclopropylmethyl)amino]-1,3,4-thiadiazol-2-yl}-2-ethoxy-1-naphthamide] | 49 | 
O=C(Nc1nnc(NCCc2c[nH]c3ccccc23)s1)c1cc(F)cc(F)c1 [compound 458, 3,5-difluoro-N-(5-{[2-(1H-indol-3-yl)ethyl]amino}-1,3,4-thiadiazol-2-yl)benzamide] | 20.7 | 
O=C(Nc1nnc(NCc2ccc3c(c2)OCO3)s1)c1ccc2c(c1)C(=O)OC2=O [compound 20, N-{5-[(1,3-benzodioxol-5-ylmethyl)amino]-1,3,4-thiadiazol-2-yl}-1,3-dioxo-1,3-dihydro-2-benzofuran-5-carboxamide] | 97.7 | 
O=C(Nc1nnc(NCCc2c[nH]c3ccccc23)s1)c1ccc(S(=O)(=O)F)cc1 [compound 90, 4-{[(5-{[2-(1H-indol-3-yl)ethyl]amino}-1,3,4-thiadiazol-2-yl)amino]carbonyl}benzenesulfonyl fluoride] |  | 66.1
CCOc1ccc2ccccc2c1C(=O)Nc1nnc(NCc2ccco2)s1 [compound 213, 2-ethoxy-N-{5-[(2-furylmethyl)amino]-1,3,4-thiadiazol-2-yl}-1-naphthamide] | 44.2 | 
CCOc1ccc2ccccc2c1C(=O)Nc1nnc(NCc2cccnc2)s1 [compound 66, 2-ethoxy-N-{5-[(3-pyridinylmethyl)amino]-1,3,4-thiadiazol-2-yl}-1-naphthamide] | 71.9 | 
